# Measured values: patent publication US4021556A, “Xanthine oxidase inhibitors” (ICN Pharmaceuticals, Inc., priority 1975, dated 1977)
# Key:
# [1] = target: T1, purified milk xanthine oxidase (Bos taurus, UniProt P80457); experiment: Xanthine oxidase inhibition, spectrophotometric at 290 nm; format: biochemical; settings: for relative activity (α) compared to allopurinol: ratio to allopurinol (allopurinol = 1); for IC50: xanthine substrate 0.013 micromoles in 3.0 ml, tris HCl buffer pH 7.50, 25° C, unit taken, none in table
# T1 construct: purchased Worthington Biochemical Corporation
# T1 sequence (P80457 whole entry): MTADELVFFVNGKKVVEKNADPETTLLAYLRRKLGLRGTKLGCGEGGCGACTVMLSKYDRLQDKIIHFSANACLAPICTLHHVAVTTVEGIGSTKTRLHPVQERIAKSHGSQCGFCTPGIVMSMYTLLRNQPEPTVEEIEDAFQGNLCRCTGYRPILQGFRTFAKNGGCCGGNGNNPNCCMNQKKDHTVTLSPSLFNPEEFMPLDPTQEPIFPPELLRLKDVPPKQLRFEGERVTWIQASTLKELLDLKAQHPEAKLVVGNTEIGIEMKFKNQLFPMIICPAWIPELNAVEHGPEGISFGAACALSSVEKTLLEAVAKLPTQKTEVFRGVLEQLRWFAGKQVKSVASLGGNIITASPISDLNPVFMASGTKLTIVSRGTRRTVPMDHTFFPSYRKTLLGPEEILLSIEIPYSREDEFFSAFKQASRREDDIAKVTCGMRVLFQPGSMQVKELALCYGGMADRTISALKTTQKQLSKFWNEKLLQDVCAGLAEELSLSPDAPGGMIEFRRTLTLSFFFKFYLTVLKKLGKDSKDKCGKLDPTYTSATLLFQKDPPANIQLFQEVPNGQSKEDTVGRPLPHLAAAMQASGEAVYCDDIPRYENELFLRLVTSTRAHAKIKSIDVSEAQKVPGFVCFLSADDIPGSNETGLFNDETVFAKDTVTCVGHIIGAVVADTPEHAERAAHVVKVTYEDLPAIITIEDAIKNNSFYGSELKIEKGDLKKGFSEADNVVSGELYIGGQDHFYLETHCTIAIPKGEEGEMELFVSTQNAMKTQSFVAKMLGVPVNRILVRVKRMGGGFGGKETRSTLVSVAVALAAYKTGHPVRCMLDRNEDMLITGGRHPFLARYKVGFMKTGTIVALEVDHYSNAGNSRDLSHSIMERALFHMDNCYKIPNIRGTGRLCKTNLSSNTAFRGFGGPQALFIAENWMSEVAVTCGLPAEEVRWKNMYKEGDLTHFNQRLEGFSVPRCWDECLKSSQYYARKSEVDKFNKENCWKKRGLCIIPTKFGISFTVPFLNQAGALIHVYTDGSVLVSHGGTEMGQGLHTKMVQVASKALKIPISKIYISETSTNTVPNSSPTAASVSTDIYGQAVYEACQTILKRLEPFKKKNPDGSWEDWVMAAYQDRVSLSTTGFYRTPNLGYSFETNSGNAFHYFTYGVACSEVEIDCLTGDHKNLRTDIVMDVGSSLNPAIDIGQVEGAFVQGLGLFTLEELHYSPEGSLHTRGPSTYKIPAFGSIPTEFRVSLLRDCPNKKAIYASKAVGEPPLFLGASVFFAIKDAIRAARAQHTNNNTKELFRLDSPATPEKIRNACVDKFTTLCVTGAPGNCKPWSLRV
# Procedure: In this example, the inhibitory activity of the compounds of the invention was determined by recording spectral changes at a constant wavelength of 290 nm, using a Cary Model 15 recording spectrophotometer equipped with a 0-0.1 O.D. slidewire. […] After dissolving in DMSO, the compounds were introduced into the incubation mixture containing 150 micromoles of tris HCl buffer (pH 7.50), 0.6 micromoles EDTA, 0.013 micromoles xanthine, and 20 to 40 micrograms of xanthine oxidase in a final volume of 3.0 milliliters. […] The assay was carried out by mixing all the components in a cuvette at 25° C. The reaction was started by the addition of the enzyme with the aid of a stirrer-adder. Changes in O.D. were measured for several minutes, and the rate (O.D. per minute) was calculated from the spectral change over the first 15 seconds.
# xanthine oxidase = settings: metabolite of allopurinol; cited from earlier work
# [2] = cited from earlier work
# [3] = dose killing 50% of a group of animals in two weeks, injected into the intraparietal cavity; 20160 min; cited from earlier work
Compound,relative activity (α) compared to allopurinol [1],also measured
"3-(1'-naphthyl)pyrazolo[1,5,a]pyrimidine-5,7-diol [Compound (9)]",20,–
"3-(3'-pyridyl)pyrazolo[1,5,a]pyrimidine-5,7-diol [(8)]",116,–
"3-(m-tolyl)pyrazolo[1,5,a]pyrimidine-5,7-diol [(2)]",116,–
"3-(p-acetamidophenyl)pyrazolo[1,5,a]pyrimidine-5,7-diol [(6)]",200,–
"3-(p-bromophenyl)pyrazolo[1,5,a]pyramidine-5,7-diol [Compound (4)]",56,–
"3-(p-chlorophenyl)pyrazolo[1,5,a]pyrimidine-5,7-diol [(5)]",131,–
"3-(p-tolyl)pyrazolo[1,5,a]pyrimidine-5,7-diol [(3)]",151,–
"3-phenyl pyrazolo[1,5,a]pyrimidine-5,7-diol [Compound (1)]",52,–
"3-piperonylpyrazolo[1,5,a]pyrimidine-5,7-diol [(7)]",172,–
"Oc1nc(O)c2cn[nH]c2n1 [4,6-dihydroxy pyrazolo[3,4-d]pyrimidine]",–,inhibitor effectiveness compared with allopurinol (xanthine oxidase): not as effective an inhibitor as is allopurinol
"Oc1ncnc2[nH]ncc12 [Allopurinol, allopurinol]",–,"metabolism in vivo [2]: gradually metabolized in vivo to 4,6-dihydroxy pyrazolo[3,4-d]pyrimidine; LD50 [3]: about 150 milligrams per kilogram of body weight"
"Cc1cccc(-c2cnn3c(O)ccnc23)c1 [Compound (10), 3-(m-tolyl)pyrazolo[1,5a]pyrimidin-7-ol]",50,IC50 [1]: 100 nM
"Oc1ccnc2c(-c3ccccc3)cnn12 [Compound (11), 3-phenylpyrazolo[1,5a]pyrimidine-7-ol]",33,IC50 [1]: 150 nM
